In patent US9999650B2, “Peptide and peptidomimetic inhibitors” (Ra Pharmaceuticals, Inc., priority 2012, dated 2018):
Numbered stars: 1 amine (or outer) side, 2 acyl side, 3 side chain; on linkers, the order of the positions; unused ones are H or OH. Bridge positions count the residues as written; N and C are the ends. Square brackets hold non-standard residues; d marks the D form. Peptide text beside a SMILES is read from it. Ala(1H-tetrazol-5-yl) = N[C@@H](Cc1nnn[nH]1)C(=O)O; Phe(4-Cl) = N[C@@H](Cc1ccc(Cl)cc1)C(=O)O; X3 = O=C(C(Cc1ccc(Br)s1)N[*:1])[*:2]; mXylylene = c1cc(C[*:1])cc(C[*:2])c1; NMeY = CN[C@@H](Cc1ccc(O)cc1)C(=O)O; NMeT = CN[C@H](C(=O)O)[C@@H](C)O; X2 = O=C(Cc1cccc(C[*:2])c1)[*:1]; dPhg = N[C@@H](C(=O)O)c1ccccc1; Chg = N[C@H](C(=O)O)C1CCCCC1; Pen = CC(C)(S)[C@H](N)C(=O)O; Phg = N[C@H](C(=O)O)c1ccccc1; Tle = CC(C)(C)[C@H](N)C(=O)O; αMeP = C[C@@]1(C(=O)O)CCCN1; NMeS = CN[C@@H](CO)C(=O)O; Ac5c = NC1(C(=O)O)CCCC1; Dab = NCC[C@H](N)C(=O)O; Nva = CCC[C@H](N)C(=O)O; Mpa = O=C(O)CCS; Sar = CNCC(=O)O

Target: T1, human plasma kallikrein (Homo sapiens, UniProt P03952)
T1 construct: purchased Enzyme Research Laboratories HPKa 1303
Test: Enzyme inhibition assay (fluorogenic substrate H-Pro-Phe-Arg-AMC)
Format: biochemical
Settings: Kallikrein inhibitory activity; 1 nM activated human kallikrein, 500 μM H-Pro-Phe-Arg-AMC, 1 hour room temperature; read-out: Avg. IC50
Experimental: Activated human plasma kallikrein (Enzyme Research Laboratories, HPKa 1303) was reacted with H-Pro-Phe-Arg-7-amido-4-methylcoumarin (H-Pro-Pre-Arg-AMC) (a fluorogenic substrate for plasma as well as pancreatic and urinary kallikreins; Bachem I-1295) and candidate inhibitory peptides to determine the IC50 of the inhibitor.
Ten 8-fold serial dilutions of peptides (10 mM DMSO stocks) were performed in DMSO and then added to TCNB (50 mM Tris-HCl pH 7.2, 150 mM NaCl, 10 mM CaCl2, 0.05% Brij-35) and sonicated. 50 μL of the peptide dilutions were added to microtitre plates (96 well, black non-binding surface, Corning, 3650) and incubated for 5 minutes at room temperature with 4 nM activated human kallikrein (final concentration after addition of fluorogenic substrate: 1 nM). The samples were then incubated for 1 hour at room temperature with 2 mM H-Pro-Phe-Arg-AMC (final concentration 500 μM). Relative Fluorescence Units (RFU) were measured at excitation/emission 360 nm/460 nm by a SpectraMax M3.

T1 sequence (P03952 20-390 limits assumed): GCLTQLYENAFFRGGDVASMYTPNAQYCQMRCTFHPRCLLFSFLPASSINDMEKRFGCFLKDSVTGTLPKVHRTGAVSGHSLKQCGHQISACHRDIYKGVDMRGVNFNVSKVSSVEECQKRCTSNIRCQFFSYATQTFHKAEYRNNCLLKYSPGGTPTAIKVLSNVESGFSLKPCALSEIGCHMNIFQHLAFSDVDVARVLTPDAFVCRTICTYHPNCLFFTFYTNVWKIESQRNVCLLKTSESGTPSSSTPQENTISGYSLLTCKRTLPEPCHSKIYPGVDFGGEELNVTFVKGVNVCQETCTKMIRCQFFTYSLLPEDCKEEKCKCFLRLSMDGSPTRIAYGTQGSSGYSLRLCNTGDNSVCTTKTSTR
T1 sequence (P03952 391-638 limits assumed): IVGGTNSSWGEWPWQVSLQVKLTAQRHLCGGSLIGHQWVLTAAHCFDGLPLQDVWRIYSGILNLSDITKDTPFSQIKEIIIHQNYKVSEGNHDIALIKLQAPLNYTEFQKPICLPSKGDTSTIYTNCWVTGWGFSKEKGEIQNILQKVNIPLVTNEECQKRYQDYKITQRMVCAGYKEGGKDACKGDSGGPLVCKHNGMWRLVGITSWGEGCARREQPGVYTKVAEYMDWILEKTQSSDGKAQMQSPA

Molecule	IC50 [nM]
CC[C@H](C)[C@@H]1NC(=O)[C@H](CO)NC(=O)[C@H](CCC(=O)O)NC(=O)[C@@H](NC(C)=O)CSCc2cccc(c2)CSC[C@@H](C(=O)N[C@@H](CCCNC(=N)N)C(=O)N[C@H](C(=O)N[C@@H](CC(C)C)C(=O)N[C@@H](CCCNC(=N)N)C(=O)N[C@@H](Cc2ccc(O)cc2)C(=O)N[C@@H](CO)C(N)=O)C(C)C)NC1=O [Compound R2056, [mXylyl(1,5)]Ac-CESICRVLRYS-NH2] (Ac-CESICRVLRYS-NH2; linker 1-5 via mXylylene)	1.9
CC(C)(C)[C@H](NC(=O)[C@H](CCCNC(=N)N)NC(=O)[C@@H]1CSCc2cccc(c2)/C=C/CCC(=O)N2CCC[C@H]2C(=O)N[C@@H](C2CCCCC2)C(=O)N1)C(N)=O [Compound R2260]	4680
CC(=O)N[C@H]1CSSC[C@@H](C(N)=O)NC(=O)[C@H](C)NC(=O)[C@H]([C@@H](C)O)NC(=O)[C@H](Cc2c[nH]c3ccccc23)NC(=O)[C@@H]2CCCN2C(=O)[C@H](CO)NC(=O)[C@H](Cc2c[nH]c3ccccc23)NC(=O)[C@H](Cc2ccc(O)cc2)NC(=O)[C@H](CC(N)=O)NC1=O [Compound R2142, [cyclo(1,10)]Ac-CNYWSPWTAC-NH2] (Ac-CNYWSPWTAC-NH2; disulfide 1-10)	2.7
CN1CC(=O)N2CCC[C@H]2C(=O)N[C@@H](C2CCCCC2)C(=O)N[C@H](C(=O)N[C@@H](CCCNC(=N)N)C(=O)N[C@H](C(N)=O)C(C)(C)C)CSCc2cccc(c2)CC1=O [Compound R2257] ([Sar]P[Chg]CR[Tle]-NH2; linker N-4 via X2)	383
CC(C)(C)[C@H](NC(=O)C(Cc1ccc(Br)s1)NC(=O)[C@@H]1CSCc2cccc(c2)CSCCC(=O)N2CCC[C@H]2C(=O)N[C@H](c2ccccc2)C(=O)N1)C(N)=O (stereo partly drawn) [Compound R2220, [mXylyl(1,4)](des-NH2)C-P-(D-Phg)-C-ABP-Tbg-NH2] ([Mpa]P[dPhg]C[X3][Tle]-NH2; linker 1-4 via mXylylene)	> 100000
CC[C@H](C)[C@H](NC(=O)[C@H](CO)NC(=O)[C@H](CCC(=O)O)NC(=O)[C@H](CS)NC(=O)[C@@H](N)CCSC)C(=O)N[C@@H](CS)C(=O)N[C@@H](CCCNC(=N)N)C(=O)N[C@H](C(N)=O)C(C)C [Compound R2007, MCESICRV-NH2] (H-MCESICRV-NH2; N-terminus assumed)	2000
CC[C@H](C)[C@@H]1NC(=O)[C@H](C)NC(=O)[C@H](C)NC(=O)CCSCc2cccc(c2)CSC[C@@H](C(=O)N[C@@H](CCCNC(=N)N)C(=O)N[C@H](C(N)=O)C(C)C)NC1=O [Compound R2072, [mXylyl(1,5)](des-NH2)C-AAICRV-NH2] ([Mpa]AAICRV-NH2; linker 1-5 via mXylylene)	13
CC(C)(C)[C@H](NC(=O)[C@H](CCN)NC(=O)[C@@H]1CSCc2cccc(c2)CSCCC(=O)N2CCC[C@H]2C(=O)N[C@@H](c2ccccc2)C(=O)N1)C(N)=O [Compound R2211, [mXylyl(1,4)](des-NH2)C-P-Phg-C-Dab-Tbg-NH2] ([Mpa]P[Phg]C[Dab][Tle]-NH2; linker 1-4 via mXylylene)	> 75000
CNC(=O)[C@@H](NC(=O)[C@H](CCCNC(=N)N)NC(=O)[C@@H]1CSCc2cccc(c2)CSCCC(=O)NC2(CCCC2)C(=O)N[C@@H](C)C(=O)N[C@@H](C2CCCCC2)C(=O)N1)C(C)C [Compound R2178, [mXylyl(1,5)](des-NH2)C-(Cyclo-L)-A-Chg-CR-V-NHCH3] ([Mpa][Ac5c]A[Chg]CRV-NHMe; linker 1-5 via mXylylene)	3.2
CC[C@@H](C)[C@@H]1NC(=O)[C@@H]2CCCN2C(=O)CCCCCC/C=C/C[C@@H](C(=O)N[C@@H](CCCNC(=N)N)C(=O)N[C@H](C(N)=O)C(C)C)NC1=O [Compound R2245]	> 50000
CC[C@H](C)[C@@H]1NC(=O)[C@H](CO)NC(=O)[C@H](Cc2nn[nH]n2)NC(=O)[C@@H](NC(=O)[C@@H](N)CCSC)CSCc2cccc(c2)CSC[C@@H](C(=O)N[C@@H](CCCNC(=N)N)C(=O)N[C@H](C(N)=O)C(C)C)NC1=O [Compound R2020, [mXylyl(2,6)]MC-Asp(T)-SICRV-NH2] (H-MC[Ala(1H-tetrazol-5-yl)]SICRV-NH2; linker 2-6 via mXylylene)	13
N=C(N)NCCC[C@H](NC(=O)[C@@H]1CSCc2cccc(c2)CSCCC(=O)N2CCC[C@H]2C(=O)N[C@@H](C2CCCCC2)C(=O)N1)C(=O)O [Compound R2195, [mXylyl(1,4)](des-NH2)C-P-Chg-CR-OH] ([Mpa]P[Chg]CR-OH; linker 1-4 via mXylylene)	> 175000
CC(C)(C)[C@H](NC(=O)[C@H](Cc1ccc(Cl)cc1)NC(=O)[C@@H]1CSCc2cccc(c2)CSCCC(=O)N2CCC[C@H]2C(=O)N[C@@H](c2ccccc2)C(=O)N1)C(N)=O [Compound R2205, [mXylyl(1,4)](des-NH2)C-P-Phg-C-4-Cl-Phe-Tbg-NH2] ([Mpa]P[Phg]C[Phe(4-Cl)][Tle]-NH2; linker 1-4 via mXylylene)	> 75000
CC(C)(C)[C@H](NC(=O)[C@H](CCN)NC(=O)[C@@H]1CSCc2cccc(c2)CSCCC(=O)N2CCC[C@H]2C(=O)N[C@H](c2ccccc2)C(=O)N1)C(N)=O [Compound R2212, [mXylyl(1,4)](des-NH2)C-P-(D-Phg)-C-Dab-Tbg-NH2] ([Mpa]P[dPhg]C[Dab][Tle]-NH2; linker 1-4 via mXylylene)	> 100000
Ac-CNYWSPWTEA-NH2 [Compound R2127, Ac-CNYWSPWTEA-NH2]	35.6
CC[C@@H](C)[C@@H]1NC(=O)CCCCCCC/C=C/C[C@@H](C(=O)N[C@@H](CCCNC(=N)N)C(=O)N[C@H](C(N)=O)C(C)C)NC1=O [Compound R2240]	> 75000
CC(=O)N[C@H]1CSCc2cccc(c2)CSC[C@@H](C(N)=O)NC(=O)[C@H](C)NC(=O)[C@H]([C@@H](C)O)N(C)C(=O)[C@H](Cc2c[nH]c3ccccc23)NC(=O)[C@@H]2CCCN2C(=O)[C@H](CO)N(C)C(=O)[C@H](Cc2c[nH]c3ccccc23)NC(=O)[C@H](Cc2ccc(O)cc2)N(C)C(=O)[C@H](CC(N)=O)NC1=O [Compound R2223, [mXylyl(1,10)]Ac-CN-nMeY-W-nMeS-PW-nMeT-AC-NH2] (Ac-CN[NMeY]W[NMeS]PW[NMeT]AC-NH2; linker 1-10 via mXylylene)	> 100000
CC(C)(C)[C@H](NC(=O)[C@H](CCCNC(=N)N)NC(=O)[C@@H]1CSCc2cccc(c2)CSCCC(=O)N2CCC[C@@]2(C)C(=O)N[C@@H](C2CCCCC2)C(=O)N1)C(N)=O [Compound R2180, [mXylyl(1,4)](des-NH2)C-(a-Me)P-Chg-CR-Tbg-NH2] ([Mpa][αMeP][Chg]CR[Tle]-NH2; linker 1-4 via mXylylene)	6.8
CC(C)(C)[C@H](NC(=O)[C@H](CCCNC(=N)N)NC(=O)[C@@H]1CSCc2cccc(c2)CSCCC(=O)N2CCC[C@H]2C(=O)N[C@H](c2ccccc2)C(=O)N1)C(N)=O [Compound R2187, [mXylyl(1,4)](des-NH2)C-P-(D)Phg-CR-Tbg-NH2] ([Mpa]P[dPhg]CR[Tle]-NH2; linker 1-4 via mXylylene)	> 4700
CC(=O)N[C@@H](CS)C(=O)N[C@@H](CC(N)=O)C(=O)N[C@H](Cc1ccc(O)cc1)C(=O)N[C@@H](Cc1c[nH]c2ccccc12)C(=O)N[C@@H](CO)C(=O)N1CCC[C@H]1C(=O)N[C@@H](Cc1c[nH]c2ccccc12)C(=O)N[C@H](C(=O)N[C@@H](C)C(=O)N[C@@H](CS)C(N)=O)[C@@H](C)O [Compound R2232, Ac-CNyWSPWTAC-NH2] (Ac-CN[dY]WSPWTAC-NH2)	> 1950
Ac-ANYWSPWTAA-NH2 [Compound R2145, Ac-ANYWSPWTAA-NH2]	58.8
CC[C@H](C)[C@@H]1NC(=O)[C@H](CO)NC(=O)[C@H](CCC(=O)O)NC(=O)[C@@H](NC(=O)[C@@H](N)CCSC)CSCc2cccc(c2)CSC[C@@H](C(=O)N[C@@H](CCCNC(=N)N)C(=O)N[C@H](C(=O)N[C@@H](CC(C)C)C(=O)N[C@@H](CCCNC(=N)N)C(=O)N[C@@H](Cc2ccc(O)cc2)C(=O)N[C@@H](CO)C(=O)N[C@@H](CCC(=O)O)C(N)=O)C(C)C)NC1=O [Compound R2004, [mXylyl(2,6)]MCESICRVLRYSE-NH2] (H-MCESICRVLRYSE-NH2; linker 2-6 via mXylylene)	0.501
CC[C@@H](C)[C@@H]1NC(=O)CCCCCC/C=C/C[C@@H](C(=O)N[C@@H](CCCNC(=N)N)C(=O)N[C@H](C(N)=O)C(C)C)NC1=O [Compound R2241]	> 75000
CC(C)(C)[C@H](NC(=O)[C@H](CCCNC(=N)N)NC(=O)[C@@H]1CSCc2cccc(c2)CC(=O)NCCC(=O)N2CCC[C@H]2C(=O)N[C@@H](C2CCCCC2)C(=O)N1)C(N)=O [Compound R2258]	498
CCC[C@H](N)C(=O)N[C@@H]1C(=O)N[C@@H](CCC(=O)O)C(=O)N[C@@H](CO)C(=O)N[C@@H]([C@@H](C)CC)C(=O)N[C@H](C(=O)N[C@@H](CCCNC(=N)N)C(=O)N[C@H](C(N)=O)C(C)C)C(C)(C)SCc2cccc(c2)CSC1(C)C [Compound R2034, [mXylyl(2,6)]Nvl-Pen-ESI-Pen-RV-NH2] (H-[Nva][Pen]ESI[Pen]RV-NH2; linker 2-6 via mXylylene)	> 100000
CC(C)(C)[C@H](NC(=O)[C@H](CCCNC(=N)N)NC(=O)[C@@H]1CCCn2cc(nn2)CCCCC(=O)N2CCC[C@H]2C(=O)N[C@@H](C2CCCCC2)C(=O)N1)C(N)=O [Compound R2248]	> 100000
